According to the supplement of paper PMC10307832:

Key:
Assay in all cases: relative viability (nuclei count vs DMSO), 5 days (fraction); higher = more cells survive
[1] = compound: CC1=CN2C(=O)C=C(N=C2C(=C1)C(C)NC3=CC=CC=C3)N4CCOCC4 [TGX 221] + CS(=O)(=O)N1CCN(Cc2cc3nc(-c4cccc5[nH]ncc45)nc(N4CCOCC4)c3s2)CC1 [Pictilisib] (partner 1 µM)
In short: (§1)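 A single step with final 0.05% Triton X-100, 1% formaldehyde and 1 ug/ml Hoechst fixed the cells and stained nuclei 5 days after treatment. Lung cancer cell lines in 1536-well plates had been treated by pin tool the day after seeding with one drug alone or a fixed anchor-drug dose plus five library-drug doses (not always all listed) in √10 steps, and nuclei were counted on 4× images. Relative viability is the ratio of nuclei in treated wells to nuclei in vehicle wells, taken as the median of duplicate plates.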

[2] = compound: O=C(CCCCCCNC(=O)c1cnc(N(c2ccccc2)c2ccccc2)nc1)NO [Ricolinostat] + CCNC(=O)c1noc(-c2cc(C(C)C)c(O)cc2O)c1-c1ccc(CN2CCOCC2)cc1 [Luminespib] (partner 0.01 µM)
In short: as §1

[3] = compound: O=C(CCCCCCNC(=O)c1cnc(N(c2ccccc2)c2ccccc2)nc1)NO [Ricolinostat] + CS(=O)(=O)CCNCc1ccc(-c2ccc3ncnc(Nc4ccc(OCc5cccc(F)c5)c(Cl)c4)c3c2)o1 [Lapatinib] (partner 2 µM)
In short: as §1

[4] = compound: C1=CC=C(C(=C1)C2=CC=C(C=C2)C3=CSC4=C3C(=C(C(=O)N4)C#N)O)O + Cc1nc(Nc2ncc(C(=O)Nc3c(C)cccc3Cl)s2)cc(N2CCN(CCO)CC2)n1 [Dasatinib] (partner 0.075 µM)
In short: as §1

Cell Line | relative viability ([1]; first compound 0.08 µM) | relative viability ([1]; first compound 0.253 µM) | relative viability ([1]; first compound 0.8 µM) | relative viability ([1]; first compound 2.53 µM) | relative viability ([1]; first compound 8 µM) | relative viability ([2]; first compound 0.08 µM) | relative viability ([2]; first compound 0.253 µM) | relative viability ([2]; first compound 0.8 µM) | relative viability ([2]; first compound 2.53 µM) | relative viability ([3]; first compound 0.08 µM) | relative viability ([3]; first compound 0.253 µM) | relative viability ([3]; first compound 0.8 µM) | relative viability ([3]; first compound 2.53 µM) | relative viability ([4]; first compound 0.08 µM) | relative viability ([4]; first compound 0.253 µM) | relative viability ([4]; first compound 0.8 µM) | relative viability ([4]; first compound 2.53 µM) | relative viability ([4]; first compound 8 µM)
EMC-BAC-2 | 0.535 | 0.523 | 0.535 | 0.471 | 0.535 | 1.05 | 1.14 | 1.12 | 1.11 | 0.784 | 0.895 | 0.894 | 0.676 | 0.35 | 0.332 | 0.306 | 0.283 | 0.316
H3255 | 0.466 | 0.445 | 0.45 | 0.492 | 0.539 | 0.534 | 0.881 | 0.833 | 0.704 | 0.189 | 0.3 | 0.2 | 0.207 | 0.369 | 0.352 | 0.255 | 0.39 | 0.35
PC-14 | 0.695 | 0.61 | 0.612 | 0.685 | 0.625 |  | 0.172 | 0.177 | 0.169 | 0.243 | 0.291 | 0.263 | 0.172 | 0.244 | 0.261 | 0.272 | 0.27 | 0.239
NCI-H661 | 0.388 | 0.464 | 0.403 | 0.323 | 0.355 | 0.743 | 0.886 | 0.881 | 0.685 |  | 0.544 | 0.542 | 0.72 | 0.771 | 0.916 | 1.07 | 0.834 | 0.801
HARA | 0.538 | 0.469 | 0.372 | 0.361 | 0.585 | 0.787 | 0.606 | 0.478 | 0.349 | 0.503 | 0.676 | 0.659 | 0.411 | 0.241 | 0.228 | 0.346 | 0.292 | 0.192
COR-L23 | 0.746 | 0.713 | 0.757 | 0.771 | 0.892 | 0.518 | 0.571 | 0.661 | 0.427 | 1.05 | 0.835 | 0.8 | 0.588 | 0.492 | 0.48 | 0.61 | 0.548 | 0.272
SK-MES-1 | 0.406 | 0.363 | 0.304 | 0.328 | 0.289 | 0.84 | 0.865 | 0.609 | 0.757 | 0.403 | 0.466 | 0.439 | 0.456 | 0.391 | 0.334 | 0.309 | 0.274 | 0.359
NCI-H1395 | 0.571 | 0.531 | 0.572 | 0.676 | 0.523 |  | 0.792 | 0.859 | 0.528 |  | 1.11 | 0.881 | 0.833 | 0.382 | 0.368 | 0.45 | 0.381 | 0.421
NCI-H2170 | 0.312 | 0.288 | 0.325 | 0.376 | 0.357 | 0.616 | 0.717 | 0.661 | 0.953 | 0.23 | 0.277 | 0.28 | 0.264 | 0.486 | 0.514 | 0.662 | 0.635 | 0.691
NCI-H647 | 0.407 | 0.404 | 0.406 | 0.37 | 0.412 | 0.161 | 0.238 | 0.117 | 0.21 | 0.915 | 1.11 | 1.07 | 0.627 | 0.153 | 0.189 | 0.191 | 0.183 | 0.1
CAL-12T |  | 0.415 | 0.376 |  | 0.519 | 0.497 | 0.378 | 0.542 | 0.303 | 0.326 | 0.751 | 0.628 | 0.668 | 0.389 | 0.353 | 0.435 | 0.36 | 0.362
201T |  | 0.715 | 0.689 | 0.63 | 0.621 | 0.94 | 1.04 | 1.09 | 1.08 | 0.921 | 1.01 | 0.95 | 1.07 | 0.564 | 0.597 | 0.521 | 0.516 | 0.654
NCI-H1944 | 0.335 | 0.339 | 0.361 | 0.342 | 0.335 | 0.663 | 0.686 | 0.629 | 0.57 | 0.638 | 0.85 | 0.819 | 0.854 | 0.224 | 0.248 | 0.219 | 0.178 | 0.215
NCI-H1651 | 0.501 | 0.481 | 0.584 | 0.578 | 0.465 | 0.712 | 0.891 | 0.852 | 0.914 | 0.6 | 0.702 | 0.731 | 0.636 | 0.386 | 0.371 | 0.436 | 0.378 | 0.26
LCLC-97TM1 | 0.197 | 0.196 | 0.165 | 0.164 | 0.188 | 0.651 | 0.752 | 0.565 | 0.561 | 0.658 | 1.09 | 0.87 | 1.15 | 0.767 | 0.979 | 0.98 | 0.936 | 0.806
LC-2-ad | 0.453 |  | 0.444 | 0.491 | 0.473 | 0.8 | 0.987 | 0.98 | 0.869 | 0.883 | 0.943 | 0.98 | 0.678 | 0.367 | 0.545 | 0.426 | 0.694 | 0.475
NCI-H2347 | 0.608 | 0.798 | 0.433 | 0.58 | 0.428 | 0.424 | 0.487 | 0.573 | 0.364 | 0.849 | 0.908 | 0.874 | 0.82 | 0.331 | 0.276 | 0.28 | 0.284 | 0.314
NCI-H2009 | 0.814 | 0.746 | 0.893 | 0.774 | 0.662 | 0.99 | 0.927 | 0.91 | 0.84 | 0.812 | 0.887 | 0.832 | 0.74 | 0.322 | 0.267 | 0.322 | 0.302 | 0.29
